This note sets out measurements from US7396547B2, “Antiseptic composition” (priority 1999, dated 2008).

The structures appear in SMILES notation.

The nature of one data set: Solubility in water. Type of data set: physicochemical. The source says: A composition for use in accordance with the invention can comprise PMD and a carrier.
Another data set concerns E. coli. Nature of the data set: Cis PMD MIC/MBC determination, broth dilution and sub-culture. The data set is classed as cell-based. The arrangement: key to bacterial growth: A “+” indicates bacterial growth; a “−” indicates that bacterial growth is prevented. The settings on record: for bacterial growth: overnight 37° C. On the procedure: MIC—minimum inhibitory concentration. This is the concentration of PMD which prevents bacterial growth. […] Thus, for E. Coli below, the minimum inhibitory concentration is 0.25% PMD in 1.25% ethanol.
MBC—minimum bactericidal concentration. This is the concentration of PMD which kills the bacteria. A “ ? ” indicates live bacteria are present.
Cis PMD was dissolved in Absolute Ethanol (0.2 g/ml) to give 20% solution. This was further diluted in water to give 10% in 50% EtOH. 200 μl was added to 0.8 ml Iso-sensitest broth to give a 2% solution in 10% EtOH. Serial 2-fold dilutions in ISB were then carried out and 20 μl E. coli (McFarlane 0.5) were added to each tube and incubated overnight at 37° C. After 18 hours, tubes showing no growth were sub-cultured.
(Dilution methods test growth across graded concentrations, often in twofold steps.)

The subject of another data set is certain strains of MRSA. Nature of the data set: Tests against MRSA. The data set is classed as cell-based, Staphylococcus aureus. The source says: In a further aspect, therefore, the invention provides the use of PMD against MRSA.
A short description of data set [1]: Toxicity tests for regulatory authorities. The source says:
PMD is the active ingredient in our MOSIGUARD™ insect repellant. We have conducted tests to show regulatory authorities that PMD is not toxic, and we have marketed our insect repellent for several years and there has been no report of any significant toxicity thereof. Potentially, therefore, the medical uses of PMD may be topical or systemic. Systemic administration may be by way of an oral dosage form or by a parenteral route, such as by intra-venous injection.

For the next data set, the system named is acne. In words: Effect against acne. The source says: The etiology of acne is not completely understood, but, in some instances, it is believed that acne has a bacterial etiology.
Another data set deals with S. aureus (oxford). Nature of the data set: Cis PMD MIC/MBC determination, broth dilution and sub-culture. The arrangement: key: A “+” indicates bacterial growth; a “−” indicates that bacterial growth is prevented. To be noted: overnight 37° C. The data set is classed as cell-based.
The next data set concerns MRSA 15. The data set is described as above. The settings on record: overnight 37° C. The data set is classed as cell-based, Staphylococcus aureus. The arrangement: key: A “+” indicates bacterial growth; a “−” indicates that bacterial growth is prevented.
A further data set has as its system P. aeruginosa. The description is as above. The data set is classed as cell-based. The arrangement: key: A “+” indicates bacterial growth; a “−” indicates that bacterial growth is prevented. To be noted: overnight 37° C.
The test system of the next data set is S. pyogenes. The data set is described as above. The data set is classed as cell-based. To be noted: overnight 37° C. The arrangement: key: A “+” indicates bacterial growth; a “−” indicates that bacterial growth is prevented.
The test system of a further data set is MRSA 16. The description is as above. The data set is classed as cell-based, Staphylococcus aureus. The arrangement: key: A “+” indicates bacterial growth; a “−” indicates that bacterial growth is prevented. The settings on record: overnight 37° C.

`C[C@H]1CC[C@H](C(C)(C)O)[C@H](O)C1` (racemic) [PMD, p-menthane-3,8-diol]: in “Solubility in water”, the solubility in water result was “poorly soluble”. In addition, the minimum inhibitory concentration in the data set on E. coli (in 1.25% ethanol) is reported as 0.25%. The minimum bactericidal concentration with E. coli (in 2.5% ethanol) turned out to be 0.5%. Further, in the data set on certain strains of MRSA, the “effectiveness against MRSA” value is listed as “effective”. Besides, the toxicity result in data set [1] was “not toxic”. Besides, the effectiveness against acne entry in the data set on acne is given as “effective”.
Regarding `CC1CCC(C(C)(C)O)C(O)C1` (stereo not drawn) [Cis PMD], the bacterial growth entry is recorded as “+” with S. aureus (oxford) (0.06% PMD, 0.3% alcohol); “+” in the data set on S. aureus (oxford) (0.125% PMD, 0.6% alcohol); “+” in the data set on S. aureus (oxford) (0.25% PMD, 1.25% alcohol); “−” with S. aureus (oxford) (0.5% PMD, 2.5% alcohol); “−” in the data set on S. aureus (oxford) (1% PMD, 5% alcohol); “−” in the data set on S. aureus (oxford) (2% PMD, 10% alcohol). For the same compound, the bacterial growth result in the data set with MRSA 15 (0.06% PMD, 0.3% alcohol) is “+”; in the data set with MRSA 15 (0.125% PMD, 0.6% alcohol) it was “+”; in the data set with MRSA 15 (0.25% PMD, 1.25% alcohol), “+”; with MRSA 15 (0.5% PMD, 2.5% alcohol) it was “−”; in the data set with MRSA 15 (2% PMD, 10% alcohol), “−”; in the data set with P. aeruginosa (0.06% PMD, 0.3% alcohol) it was “+”. In addition, the bacterial growth result with P. aeruginosa (0.125% PMD, 0.6% alcohol) is “+”; in the data set on P. aeruginosa (0.25% PMD, 1.25% alcohol), “+”; with P. aeruginosa (0.5% PMD, 2.5% alcohol) it was “−”; in the data set on P. aeruginosa (1% PMD, 5% alcohol), “−”; in the data set with P. aeruginosa (2% PMD, 10% alcohol), “−”; with S. pyogenes (0.06% PMD, 0.3% alcohol), “+”. For the same compound, the bacterial growth result with S. pyogenes (0.125% PMD, 0.6% alcohol) is reported as “+”; in the data set on S. pyogenes (0.25% PMD, 1.25% alcohol), “−”; in the data set with S. pyogenes (0.5% PMD, 2.5% alcohol), “−”; in the data set with S. pyogenes (1% PMD, 5% alcohol), “−”; in the data set with S. pyogenes (2% PMD, 10% alcohol), “−”; in the data set on E. coli (0.06% PMD, 0.3% alcohol), “+”. The bacterial growth entry is given as “+” with E. coli (0.125% PMD, 0.6% alcohol); “−” with E. coli (0.25% PMD, 1.25% alcohol); “−” in the data set with E. coli (0.5% PMD, 2.5% alcohol); “−” with E. coli (1% PMD, 5% alcohol); “−” in the data set with E. coli (2% PMD, 10% alcohol); “+” in the data set on MRSA 16 (0.06% PMD, 0.3% alcohol). The bacterial growth entry is given as “+” with MRSA 16 (0.125% PMD, 0.6% alcohol); “+” in the data set with MRSA 16 (0.25% PMD, 1.25% alcohol); “−” in the data set with MRSA 16 (0.5% PMD, 2.5% alcohol); “−” in the data set on MRSA 16 (1% PMD, 5% alcohol); “−” in the data set on MRSA 16 (2% PMD, 10% alcohol).
